Assay results reported in ChEMBL document CHEMBL1201862, “PubChem BioAssay data set” (2004).
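Grown in 96-well plates, cells were treated for 48 hours with each compound at five concentrations. Insufficient inhibition: endpoint recorded as highest concentration tested. Abbreviation: GI50, concentration required for 50% inhibition of growth.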 The source made the active and inactive calls. Cut-off read from the data, not from the text of the source: active = GI50 up to about 1.1 µM and inactive = higher.

How the values were obtained:
Assay in all cases: inhibition of tumour cell growth, NCI panel, 48 h
[1] = tested on: ACHN
[2] = tested on: DU-145
[3] = tested on: LOX IMVI
[4] = tested on: M14
[5] = tested on: MDA-MB-231
[6] = tested on: MDA-N
[7] = tested on: MOLT-4
[8] = tested on: Malme-3M
[9] = tested on: OVCAR-3
[10] = tested on: RPMI-8226
[11] = tested on: RXF 393
[12] = tested on: SK-MEL-28
[13] = tested on: SK-MEL-5
[14] = tested on: SK-OV-3
[15] = tested on: SN12C
[16] = tested on: SNB-19
[17] = tested on: TK-10
[18] = tested on: UACC-257

Measured: GI50

[O-][n+]1onc2c1/C(=N/O)CCC2
inactive: [1] > 100 µM | [2] > 100 µM | [3] > 100 µM | [4] > 100 µM | [5] > 100 µM | [6] > 100 µM | [7] > 100 µM | [8] > 100 µM | [9] > 100 µM | [10] > 100 µM | [11] > 100 µM | [12] > 100 µM | [13] > 100 µM | [14] > 100 µM | [15] > 100 µM | [16] > 100 µM | [17] > 100 µM | [18] > 100 µM

O=C(CSCC(=O)N/N=C\c1ccc(O)c(O)c1O)N/N=C\c1ccc(O)c(O)c1O
inactive: [1] 5.87 µM | [2] 14.1 µM | [3] 2.18 µM | [4] 6.31 µM | [5] 16.6 µM | [7] 3.15 µM | [8] 22.6 µM | [9] 3.38 µM | [10] 2.3 µM | [11] 34.9 µM | [12] 20.8 µM | [13] 18.5 µM | [14] 31.6 µM | [15] 21.2 µM | [16] 29.4 µM | [17] 24 µM | [18] 5.25 µM

C[N+](C)(C)C1(C(=O)[O-])CC1
inactive: [1] > 100 µM | [2] > 100 µM | [3] > 100 µM | [4] > 100 µM | [6] > 100 µM | [7] > 100 µM | [8] > 100 µM | [9] > 100 µM | [10] > 100 µM | [11] > 100 µM | [12] > 100 µM | [13] > 100 µM | [15] > 100 µM | [16] > 100 µM | [17] > 100 µM | [18] > 100 µM

CC(=O)OCC1(C)C(OC(C)=O)CCC2(C)C(CC(OC(C)=O)C3=CCOC3=O)C(O)(CO)CCC12 (stereo not drawn)
inactive: [1] > 100 µM | [3] > 100 µM | [4] > 100 µM | [8] > 100 µM | [9] > 100 µM | [10] > 100 µM | [11] > 100 µM | [12] > 100 µM | [13] > 100 µM | [14] > 100 µM | [15] > 100 µM | [16] > 100 µM | [17] > 100 µM | [18] > 100 µM

Cc1nc2ccc(N)cc2nc1O
inactive: [1] > 100 µM | [3] > 100 µM | [4] > 100 µM | [7] > 100 µM | [8] > 100 µM | [9] > 100 µM | [10] > 100 µM | [13] > 100 µM | [14] > 100 µM | [16] > 100 µM | [17] > 100 µM | [18] > 100 µM

O=C(O)c1ccc(CI)cc1
inactive: [1] 15.7 µM | [2] 18.4 µM | [4] 17.4 µM | [5] 21.8 µM | [6] 15.5 µM | [7] 15.3 µM | [8] 10.6 µM | [9] 11.2 µM | [10] 20.8 µM | [11] 17.7 µM | [12] 14.3 µM | [13] 17 µM | [14] 25.4 µM | [15] 17 µM | [16] 13.8 µM | [18] 19.3 µM

CC(C)(CO)NC(=O)c1cccs1
inactive: [1] > 100 µM | [2] > 100 µM | [3] > 100 µM | [4] > 100 µM | [5] > 100 µM | [7] > 100 µM | [8] > 100 µM | [9] > 100 µM | [10] > 100 µM | [12] > 100 µM | [13] > 100 µM | [14] > 100 µM | [15] > 100 µM | [16] > 100 µM | [17] > 100 µM | [18] > 100 µM

CCOC(=O)/C=C(/N=P(c1ccccc1)(c1ccccc1)c1ccccc1)C(F)(F)F
inactive: [1] > 10 µM | [2] > 10 µM | [3] > 10 µM | [4] > 10 µM | [5] > 10 µM | [6] > 10 µM | [7] > 10 µM | [8] > 10 µM | [9] > 10 µM | [10] > 10 µM | [11] > 10 µM | [12] > 10 µM | [13] > 10 µM | [14] > 100 µM | [15] > 10 µM | [16] > 10 µM | [17] > 10 µM | [18] > 10 µM

COc1cccc2c1N[S@](=O)S2
inactive: [1] > 100 µM | [3] 50.8 µM | [4] > 100 µM | [7] 42.1 µM | [8] > 100 µM | [9] > 100 µM | [10] 63.4 µM | [12] > 100 µM | [14] > 100 µM | [15] 63.5 µM | [16] 38.1 µM | [17] > 100 µM | [18] > 100 µM

Cc1c(NC(=O)CCl)c(=O)oc2c(C)c3occc(=O)c3cc12
inactive: [1] 16.6 µM | [2] 23.7 µM | [4] 13.1 µM | [6] 16.1 µM | [7] 1.37 µM | [8] 21.1 µM | [10] 7.87 µM | [12] 12.8 µM | [13] 10.9 µM | [14] 18.2 µM | [16] 15.8 µM | [17] 14.5 µM | [18] 12.1 µM
